Data set [1] addresses T1, Butyrylcholinesterase purified from human blood serum (Homo sapiens, UniProt P06276).
T1 construct: Butyrylcholinesterase purified from human blood serum; purchased Sigma; host or cells: purified from human blood serum
Nature of the data set: In vitro hydrolysis by serum cholinesterase (butyrylcholinesterase). The class given is in vitro ADME. The following applies: for hydrolysis product after incubation with butyrylcholinesterase: 24-hour incubation. As to the method:
Compound 1 is rapidly hydrolyzed by butyrylcholinesterase in the bloodstream. Butyrylcholinesterase purified from human blood serum was used to test the resistance of the disclosed compounds to hydrolysis.
All enzymatic assays were performed with 50 μM compound in 0.1M phosphate buffer, pH 7.4, at 37° C. with stirring, unless otherwise noted. Butyrylcholinesterase stock solutions from human serum (Sigma, St. Louis, Mo.) were prepared at 100 U/mL in 0.1 M phosphate buffer, pH 7.4, and stored at −20° C. until use. Hydrolysis was monitored on an 8452A diode array spectrophotometer (Hewlett-Packard). Product peak wavelength absorption was immediately monitored upon addition of compound. Absorbances for complete hydrolysis were determined when there were no further detectable changes. […] All hydrolysis assays were performed in triplicate, and final rate constants are expressed as the mean±SD of the three individually determined rate constants. In some experiments with compound 1, samples were taken at the beginning and end of the assay to verify the hydrolysis product and the completion of the reaction by HPLC. These samples were compared to compounds 1 and 3 on a C18 column eluted with 0.1% TFA in water/acetonitrile. Activity of chymotrypsin (bovine, Worthington Biochemical Co., 190 μg/mL) was verified with 90 μM 4-nitrophenyl acetate in 0.1 M HEPES solution, pH 6.5, at 37° C. with stirring. Hydrolysis product was monitored at 404 nm for 10 min. Activity of proteinase K (from Engyodontium album, Sigma, 165 μg/mL) was verified with 16.5 mg/mL bovine serum albumin in 0.1 M phosphate buffer, pH 7.4, at 37° C. Samples were taken at time point increments up to 2 hours when the reaction reached completion. Samples were analyzed with 12% SDS-PAGE, stained with 0.1% Coomassie Blue.

Data set [2] has as its system heteromeric rod CNG channels consisting of CNGA1 and CNGB1 subunits. Nature of the data set: CNG channel block at subsaturating cGMP (state dependence of block). The class given is cell-based. The following applies: subsaturating cGMP (50 or 100 μM), +50 mV, normalized to KD at 2 mM cGMP. From the text: KD values at saturating cGMP were corrected for ion accumulation. Solid lines indicate simulations for exclusive closed channel blockers, using KD/KDsat=(1−Fsat)/(1−FsatI/Imax), where Fsat is the estimated fraction of open heteromeric rod channels in saturating cGMP assuming Fsat=0.3 (a), 0.56 (b), or 0.78 (c). The dotted line is a simulation for a blocker with no preference for state, or KD/KDsat=1. The dashed line is a simulation for an exclusive open channel blocker, using KD/KDsat=(I/Imax)^−1.
The solid lines in FIG. 4 marked a, b, and c represent the expected relationship between KD and the fraction of closed channels for an exclusive closed channel blocker. Each of a, b, and c uses one estimate for the probability of closed heteromeric retinal rod channels at saturating cGMP. The simulations are described in the following references: Matthews G et al, J Physiol 403, 389-405 (1988); Taylor W R & Baylor D A, J Physiol 483 567-582 (1995); and Bucossi G et al, Biophys J 72, 1165-1181 (1997), all of which are incorporated by reference herein. The dotted line represents a simulation of a blocker with no preference as to conformational of the channel. The dashed line represents a simulation for an exclusive open channel blocker.
Recordings from inside-out excised patches were made 3-7 days after oocyte injection on an Axopatch 1D® amplifier (Axon Instruments, Foster City, Calif.). Briefly, oocyte vitelline membranes were removed in solution containing 200 mM K aspartate, 20 mM KCl, 1 mM MgCl2, 10 mM EGTA, 10 mM HEPES, pH 7.4. Oocytes were placed in a recording chamber in a solution containing 130 mM NaCl, 2 mM HEPES, 0.02 mM EDTA, 1 mM EGTA, pH 7.6, and borosilicate glass electrodes (1-3 MΩ) were filled with identical solution. Macroscopic currents were filtered at 1 kHz and sampled at 2 kHz using pCLAMP 8.0® software (Axon Instruments). Channels were either fully activated with 2 mM or partially activated with 50 and 100 μM cGMP. […] Glass syringes and Teflon tubing were used to minimize the binding of compounds to surfaces; concentrations passing through the perfusion system were verified by absorbance. Current traces were digitally filtered at 300 Hz (Gaussian) and averaged using Clampfit 8.2® software. Currents in the absence of cGMP were subtracted from all currents analyzed. KD values were determined and expressed as the mean±SD.

This note sets out measurements from patent publication US9458102B2 (priority 2011, dated 2016).

T1 sequence (P06276 29-602): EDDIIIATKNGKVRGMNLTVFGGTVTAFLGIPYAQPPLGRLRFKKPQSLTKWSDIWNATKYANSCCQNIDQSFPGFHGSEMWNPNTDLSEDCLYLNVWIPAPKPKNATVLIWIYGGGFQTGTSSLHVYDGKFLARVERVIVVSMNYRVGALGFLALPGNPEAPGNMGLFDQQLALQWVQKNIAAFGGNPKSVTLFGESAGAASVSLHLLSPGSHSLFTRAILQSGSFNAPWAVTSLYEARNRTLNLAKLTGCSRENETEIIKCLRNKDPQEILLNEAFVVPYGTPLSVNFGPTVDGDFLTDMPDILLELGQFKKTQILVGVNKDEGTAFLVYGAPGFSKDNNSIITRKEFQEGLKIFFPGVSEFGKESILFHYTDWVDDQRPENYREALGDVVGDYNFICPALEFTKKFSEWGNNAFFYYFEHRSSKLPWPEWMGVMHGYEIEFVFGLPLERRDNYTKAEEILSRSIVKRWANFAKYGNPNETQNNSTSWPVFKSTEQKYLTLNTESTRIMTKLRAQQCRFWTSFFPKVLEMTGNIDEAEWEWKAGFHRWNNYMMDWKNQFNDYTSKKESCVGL

As to `CCCCCCCCNc1ccc(C(=O)OCCN(C)C)cc1` [Compound 5, 2-(Dimethylamino)ethyl 4-(Octylamino)benzoate, reference compound], the Hydrolysis rate in data set [1] (50 μM compound, 0.1M phosphate buffer pH 7.4, 37° C., mean±SD of triplicate) stood at 213 ± 31 nmol/min/mg. In addition, the “state dependence of block (KD vs fraction of closed channels)” value in data set [2] is “better fit the results expected of a closed channel blocker”.

Take `CCCCNc1ccc(C(=S)NCCN(C)C)cc1` [Compound 8, 4-(Butylamino)-N-(2-(dimethylamino)ethyl)benzothioamide]: in data set [1], the “hydrolysis product after incubation with butyrylcholinesterase” value is “no hydrolysis product was detected”. Besides, the “state dependence of block (KD vs fraction of closed channels)” value in data set [2] is listed as “better fit the results expected of a closed channel blocker”.

As for `CCCCCCCCNc1ccc(C(=S)NCCN(C)C)cc1` [Compound 9, 4-(Octylamino)-N-(2-(dimethylamino)ethyl)benzothioamide], the “hydrolysis product after incubation with butyrylcholinesterase” value in data set [1] is “no hydrolysis product was detected”. For the same compound, in data set [2], the “state dependence of block (KD vs fraction of closed channels)” value is “better fit the results expected of a closed channel blocker”.
